Assay results from ChEMBL document CHEMBL5727627, “Tetrahydropyrimidodiazepine and dihydropyridodiazepine compounds for treating pain and pain related conditions” (2020).

Biological target: Voltage-dependent calcium channel subunit alpha-2/delta-1 (Homo sapiens, UniProt P54289)
Test: Binding Assay: α2δ-1: Binding Assay to Human α2δ-1 Subunit of Cav2.2 Calcium Channel.Human α2δ-1 enriched membranes (2.5 μg) were incubated with 15 nM of radiolabeled [3H]-Gabapentin in assay buffer containing Hepes-KOH 10 mM, pH 7.4.NSB (non specific binding) was measured by adding 10 μM pregabalin. After 60 min incubation at 27° C., binding reaction was terminated by filtering through Multiscreen GF/C (Millipore) presoaked in 0.5% polyethyleneimine in Vacuum Manifold Station, followed by 3 washes with ice-cold filtration buffer containing 50 mM Tris-HCl, pH 7.4.Filter plates were dried at 60° C. for 1 hour and 30 μl of scintillation cocktail were added to each well before radioactivity reading.Readings were performed in a Trilux 1450 Microbeta radioactive counter (Perkin Elmer).

Voltage-dependent calcium channel subunit alpha-2/delta-1, sequence (P54289 25-956 limits assumed): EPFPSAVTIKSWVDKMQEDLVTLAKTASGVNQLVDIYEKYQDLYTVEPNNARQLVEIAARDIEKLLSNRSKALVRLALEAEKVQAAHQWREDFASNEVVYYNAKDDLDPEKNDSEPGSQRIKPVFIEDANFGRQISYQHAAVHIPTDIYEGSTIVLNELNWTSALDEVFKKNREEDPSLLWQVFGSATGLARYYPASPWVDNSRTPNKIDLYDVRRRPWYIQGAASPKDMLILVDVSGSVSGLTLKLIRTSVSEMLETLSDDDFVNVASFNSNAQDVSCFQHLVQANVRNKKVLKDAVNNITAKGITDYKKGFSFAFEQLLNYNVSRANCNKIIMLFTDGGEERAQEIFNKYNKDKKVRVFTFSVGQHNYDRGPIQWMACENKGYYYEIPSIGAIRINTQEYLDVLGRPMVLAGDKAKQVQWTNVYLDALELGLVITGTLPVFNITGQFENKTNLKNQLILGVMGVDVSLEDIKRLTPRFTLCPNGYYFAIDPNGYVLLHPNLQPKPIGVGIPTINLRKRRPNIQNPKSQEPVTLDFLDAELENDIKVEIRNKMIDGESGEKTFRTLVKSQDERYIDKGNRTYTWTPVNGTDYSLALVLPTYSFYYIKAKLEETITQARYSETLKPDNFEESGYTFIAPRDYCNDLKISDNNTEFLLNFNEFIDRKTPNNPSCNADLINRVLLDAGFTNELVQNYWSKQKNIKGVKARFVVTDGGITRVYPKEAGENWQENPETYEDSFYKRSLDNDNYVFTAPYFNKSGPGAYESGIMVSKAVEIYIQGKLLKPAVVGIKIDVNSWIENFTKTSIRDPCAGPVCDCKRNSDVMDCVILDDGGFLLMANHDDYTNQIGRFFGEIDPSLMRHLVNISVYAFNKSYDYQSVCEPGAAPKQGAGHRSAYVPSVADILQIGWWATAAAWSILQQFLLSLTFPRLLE
Voltage-dependent calcium channel subunit alpha-2/delta-1, sequence (P54289 957-1103 limits assumed): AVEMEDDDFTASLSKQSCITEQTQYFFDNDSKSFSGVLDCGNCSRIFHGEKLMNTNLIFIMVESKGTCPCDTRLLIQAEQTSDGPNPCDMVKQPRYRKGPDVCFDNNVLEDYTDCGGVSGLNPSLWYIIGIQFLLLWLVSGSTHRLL

| SMILES | Ki [µM] |
| --- | --- |
| CSc1ncc2c(n1)N(C)CCN(c1cccc(OC(CCN(CCF)C(=O)OC(C)(C)C)c3cccs3)c1)C2=O (stereo not given) | > 3 |
| CNCC[C@H](Oc1cc(F)ccc1CN1CCN(C)c2nc(OC)ncc2C1=O)c1cccs1 | > 3 |
| CSc1ncc2c(n1)N(C)CCN(c1cccc(-c3nnc(CN(C)C(=O)OC(C)(C)C)o3)c1)C2=O | > 3 |
| CCNc1cc2c(cn1)C(=O)N(c1cccc(COC(CCN(C)C(=O)OC(C)(C)C)c3ccccc3)c1)CCN2C (stereo not given) | > 3 |
| CCNc1cc2c(cn1)C(=O)N(c1cccc(OC(CCN(C)C(=O)OC(C)(C)C)c3ccccc3)c1)CCN2C (stereo not given) | > 3 |
